For orientation: IC50 means the midpoint of a concentration-inhibition curve. High values mean weaker potency in that assay, low ones greater potency in that assay.

SMILES strings stand for the structures. Bounds are passed on as bounds.

IC50 data for 29 compounds are collected here from ChEMBL document CHEMBL3596115, “Discovery of novel guanidinophenylpyrazole human acrosin inhibitors by molecular hybridization” (Medchemcomm, 2014).

For one assay, the target named is Acrosin (Homo sapiens, UniProt P10323). Nature of the assay: Inhibition of acrosin in human liquefied human semen using BAPNA incubated at 37.8 degC for 3 hrs by spectrophotometry.
Assay [1] is described as follows: Inhibition of pig trypsin. The arrangement: species or system Sus scrofa.

Acrosin, sequence (P10323 20-42 limits assumed): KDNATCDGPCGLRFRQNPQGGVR
Acrosin, sequence (P10323 43-343 limits assumed): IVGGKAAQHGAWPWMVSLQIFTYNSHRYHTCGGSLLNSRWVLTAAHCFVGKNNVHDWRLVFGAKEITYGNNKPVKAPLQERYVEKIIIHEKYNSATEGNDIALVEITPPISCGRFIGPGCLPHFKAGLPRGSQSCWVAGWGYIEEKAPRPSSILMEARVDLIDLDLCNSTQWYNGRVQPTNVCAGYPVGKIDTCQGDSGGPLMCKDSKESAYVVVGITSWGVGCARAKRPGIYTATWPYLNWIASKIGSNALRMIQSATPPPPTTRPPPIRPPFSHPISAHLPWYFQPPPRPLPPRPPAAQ

With `COC(=O)c1ccc(OC(=O)c2ccc(NC(=N)N)cc2)cc1`, half-maximal inhibition against Acrosin (IC50) required 2.41 µM.
The same measure, in the same setting: with `N=C(N)Nc1ccc(-c2cc(C(=O)Nc3ccc(F)cc3)n[nH]2)cc1` the figure was 24.5 µM; with `N=C(N)Nc1ccc(-c2cc(C(=O)Nc3ccccc3)n[nH]2)cc1`, 15.1 µM; with `COc1ccc(NC(=O)c2cc(-c3ccc(NC(=N)N)cc3)[nH]n2)c(OC)c1`, 2.38 µM.
Consider `COc1ccc(OC)c(NC(=O)c2cc(-c3ccc(NC(=N)N)cc3)[nH]n2)c1`, for which the IC50 against Acrosin was found to be 1.26 µM; in assay [1], 2100 µM.
Turning to `Cc1cccc(NC(=O)c2cc(-c3ccc(NC(=N)N)cc3)[nH]n2)c1`, the IC50 at Acrosin was found to be 9.43 µM.
Still for that read-out and setting: the figure for `COc1ccc(NC(=O)c2cc(-c3ccc(NC(=N)N)cc3)[nH]n2)cc1` is 11.3 µM; for `N=C(N)Nc1ccc(-c2cc(C(=O)Nc3cccc(Cl)c3)n[nH]2)cc1` it is 17.7 µM.
Same read-out and setting: with `N=C(N)Nc1ccc(-c2cc(C(=O)Nc3ccc(Br)cc3)n[nH]2)cc1` the figure was 16.1 µM.
The same measure, in the same setting: with `CCOC(=O)c1ccccc1NC(=O)c1cc(-c2ccc(NC(=N)N)cc2)[nH]n1` the figure was 5.73 µM.
Regarding `N=C(N)Nc1ccc(-c2cc(C(=O)Nc3ccc4c(c3)OCCO4)n[nH]2)cc1`, on Acrosin, the IC50 was 25.4 µM.
Regarding `Cc1ccccc1NC(=O)c1cc(-c2ccc(NC(=N)N)cc2)[nH]n1`, the IC50 against Acrosin worked out at 10.9 µM.
The compound `Cc1cc(C)cc(NC(=O)c2cc(-c3ccc(NC(=N)N)cc3)[nH]n2)c1` came in with an IC50 at Acrosin of 9.46 µM.
Still for that read-out and setting: the figure for `N=C(N)Nc1ccc(-c2cc(C(=O)Nc3ccc(Cl)cc3)n[nH]2)cc1` is 23.9 µM; for `Cc1cccc(NC(=O)c2cc(-c3ccc(NC(=N)N)cc3)[nH]n2)c1C` it is 8.45 µM.
Same read-out and setting: the figure for `N=C(N)Nc1ccc(-c2cc(C(=O)Nc3cccc(C(F)(F)F)c3)n[nH]2)cc1` is 23.7 µM.
Take `Cc1ccc(C)c(NC(=O)c2cc(-c3ccc(NC(=N)N)cc3)[nH]n2)c1`: the IC50 at Acrosin is 7.47 µM.
For `CCN(CC)c1ccc(NC(=O)c2cc(-c3ccc(NC(=N)N)cc3)[nH]n2)cc1`, at Acrosin, half-maximal inhibition (IC50) was put at 25.9 µM.
Same read-out and setting: the figure for `N=C(N)Nc1ccc(-c2cc(C(=O)Nc3cccc(Br)c3)n[nH]2)cc1` is 13.1 µM.
On the same count and under the same terms, the figure for `N=C(N)Nc1ccc(-c2cc(C(=O)Nc3cccc4ccccc34)n[nH]2)cc1` is 24.4 µM.
The same measure, in the same setting: the figure for `CC(C)(C)c1ccc(NC(=O)c2cc(-c3ccc(NC(=N)N)cc3)[nH]n2)cc1` is 5.87 µM; for `Cc1cccc(C)c1NC(=O)c1cc(-c2ccc(NC(=N)N)cc2)[nH]n1` it is 4.32 µM; for `COc1ccc(NC(=O)c2cc(-c3ccc(NC(=N)N)cc3)[nH]n2)cc1OC` it is 3.44 µM.
For `N=C(N)Nc1ccc(-c2cc(C(=O)Nc3ccc(O)cc3)n[nH]2)cc1`, the half-maximal inhibitory concentration (IC50) on Acrosin is 28.3 µM.
Still for that read-out and setting: with `N=C(N)Nc1ccc(-c2cc(C(=O)Nc3ccc(Nc4ccccc4)cc3)n[nH]2)cc1` the figure was 26.8 µM; with `COc1cccc(NC(=O)c2cc(-c3ccc(NC(=N)N)cc3)[nH]n2)c1`, 2.42 µM.
In turn, `N=C(N)Nc1ccc(-c2cc(C(=O)Nc3ccc(C(F)(F)F)cc3)n[nH]2)cc1` yielded an IC50 against Acrosin of 16.6 µM.
For `CCOC(=O)c1cc(-c2ccc(NC(=N)N)cc2)[nH]n1`, the IC50 at Acrosin was over 100 µM.
Compound `N=C(N)Nc1ccc(-c2cc(C(=O)O)n[nH]2)cc1` returned an IC50 at Acrosin of over 100 µM.
